PubChem BioAssay (NCI)
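Where inhibition never reached the appropriate level, the endpoint shown equals the highest concentration tested. Otherwise, values were interpolated linearly from a five-concentration, 48-hour dose response in 96-well plates. At the GI50, growth is halved. TGI denotes the concentration required for complete inhibition of growth.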

Key:
Experiment in all cases: NCI-60 cell line screen, 48 h
DLD-1 colon = test system: DLD-1 colon
LXFL 529 NSCLC = test system: LXFL 529 NSCLC
DMS 273 small cell lung = test system: DMS 273 small cell lung
HOP-18 NSCLC = test system: HOP-18 NSCLC
MDA-MB-435 = test system: MDA-MB-435
HS 578T breast = test system: HS 578T breast
MDA-N = test system: MDA-N
BT-549 breast = test system: BT-549 breast

SMILES | TGI (DLD-1 colon) [µM] | TGI (LXFL 529 NSCLC) [µM] | TGI (DMS 273 small cell lung) [µM] | TGI (HOP-18 NSCLC) [µM] | TGI (MDA-MB-435) [µM] | TGI (HS 578T breast) [µM] | TGI (MDA-N) [µM] | GI50 (MDA-MB-435) | GI50 (HS 578T breast) | GI50 (BT-549 breast) | TGI (BT-549 breast) [µM] | GI50 (MDA-N)
CC(=O)OC1C2CCC1C1C2C2(Cl)C(Cl)=C(Cl)C1(Cl)C2(Cl)Cl (stereo not given) | 33.3 | 33.9 | 25.4 | 33.8 | – | – | – | – | – | – | – | –
CC(C(=O)n1c2ccccc2c2ccccc21)N(c1ccccc1)c1ccccc1 (stereo not given) | 43 | 27.9 | 34.1 | – | – | – | – | – | – | – | – | –
CCOC(=O)Cn1c(=O)n(C)c(=O)c2c1ncn2Cc1ccccc1 | > 100 | > 100 | > 100 | – | – | – | – | – | – | – | – | –
CCCCc1c2c(nc3c1CCC/C3=C\c1ccccc1)/C(=C/c1ccccc1)CCC2 | – | > 100 | > 100 | – | – | – | – | – | – | – | – | –
CC(O)CC(O)(C(F)(F)F)C(F)(F)F (stereo not given) | – | – | – | – | > 10 | > 10 | > 10 | – | – | – | – | –
O=C1CSC(c2ccc(-c3nc4ccccc4s3)cc2)=N1 | – | – | – | – | 24.8 | 59.7 | – | 7.54 µM | 20.2 µM | 36.2 µM | 76.8 | –
CC1=CC(=O)C(C(O)(C(F)(F)F)C(F)(F)F)C(C)(C)C1 (stereo not given) | – | – | – | – | > 10 | > 10 | > 10 | – | – | – | – | –
O=C(OCc1ccc2c(Cl)cc(Cl)c(O)c2n1)N1CCN(C(=O)c2cc3cc(F)ccc3[nH]2)CC1 | – | – | – | – | 2.18 | > 100 | – | 0.358 µM | 1.13 µM | 1.17 µM | > 24 | –
Cc1ncc([N+](=O)[O-])n1CCNS(=O)(=O)CCCn1ncnc1[N+](=O)[O-] | – | – | – | – | > 100 | > 100 | > 100 | – | – | – | > 100 | –
COc1ccc(Cc2cnc(NC(=O)c3ccc4c(c3)OCCO4)s2)cc1 | – | – | – | – | – | > 76 | – | – | 0.0311 µM | 0.0357 µM | > 49.5 | –
O=C(O)C12CC3(C(=O)O)CC(C(=O)O)(CC(C(=O)O)(C1)C3=O)C2=O | – | – | – | – | > 100 | > 100 | > 100 | – | – | – | > 100 | –
COCOc1ccc(C2(O)Oc3cc(OCOC)ccc3C2C)c(O)c1 (stereo not given) | – | – | – | – | 28.1 | – | 28.7 | – | – | – | 28.2 | –
CCC(=O)Nc1ccc(N=NN(C)C)cc1 | – | – | – | – | > 100 | > 100 | – | – | – | – | > 100 | –
O=c1c2ccccc2nc(-c2ccccc2)n1NC(=S)Nc1ccccc1 | > 100 | > 100 | > 100 | > 100 | – | – | – | – | – | – | – | –
C[C@]12CC[C@@H]3c4ccc(O)c([N+](=O)[O-])c4CC[C@H]3[C@@H]1CC[C@@H]2NS(=O)(=O)c1cccc(Br)c1 | – | – | – | – | 2.98 | 6 | – | 1.53 µM | 2.23 µM | 1.91 µM | 3.93 | –
C[C@H]1CCC/C=C/[C@@H]2C[C@H](O)C[C@H]2[C@H](O)[C@@H](SCC(O)CO)CC(=O)O1 (stereo not given in full) | – | – | – | – | > 100 | > 100 | > 100 | 35.5 µM | 9.52 µM | 69.2 µM | > 100 | 25.5 µM
N#Cc1ccc(OC(=O)Nc2ccc(Cl)c(Cl)c2)cc1 | – | – | – | – | 22.4 | 28.9 | – | 3.17 µM | 5.02 µM | 9.93 µM | 44.2 | –
C=CCN1CC2CON(C(=O)C(OC)(c3ccccc3)C(F)(F)F)C2C1C(C)C (stereo not given) | – | – | – | – | – | – | – | 41.8 µg/mL | 37.4 µg/mL | 30.1 µg/mL | – | 31.8 µg/mL

SMILES | TGI (DLD-1 colon) [µM] | TGI (LXFL 529 NSCLC) [µM] | TGI (DMS 273 small cell lung) [µM] | TGI (HOP-18 NSCLC) [µM] | TGI (MDA-MB-435) [µM] | TGI (HS 578T breast) [µM] | TGI (MDA-N) [µM] | GI50 (MDA-MB-435) | GI50 (HS 578T breast) | GI50 (BT-549 breast) | TGI (BT-549 breast) [µM] | GI50 (MDA-N)
O=S1(=O)OCCOS(=O)(=O)C1Cl | > 100 | > 100 | > 100 | > 100 | – | – | – | – | – | – | – | –
CC[C@@]1(O)C(=O)OCc2c1cc1n(c2=O)Cc2c-1nc1cc(F)c(C)c3c1c2[C@@H](N)CC3 | – | – | – | – | 1.48 | > 100 | – | 0.015 µM | 0.735 µM | < 0.01 µM | 0.199 | –
Nc1ccc2nc3n(c2c1)C(=O)c1ccccc1-3 | – | – | – | – | – | – | > 100 | – | – | – | > 100 | –
Cn1cc(-c2ccc(-c3cncc(Cl)c3N3CCC4(CCNC4=O)CC3)cc2)cn1 | – | – | – | – | > 100 | > 100 | – | 38.7 µM | 80.1 µM | 26 µM | > 100 | –
CC/C=C/C/C=C/C/C=C/C/C=C/C/C=C/C/C=C/CCC(=O)Nc1ccn([C@@H]2O[C@H](CO)[C@@H](O)C2(F)F)c(=O)n1 | – | – | – | – | 17.5 | > 76.9 | – | 0.2 µM | 46.4 µM | 0.681 µM | 19.8 | –
O=c1nc(-c2ccccc2)cc(-c2ccccc2O)[nH]1 | > 100 | > 100 | > 100 | > 100 | – | – | – | – | – | – | – | –
Oc1ccc(Br)cc1C=Nc1ccc(N=Cc2cc(Br)ccc2O)cc1 | > 100 | – | – | – | – | – | – | – | – | – | – | –
C/C(=N\NC(=S)N1CC2CCC(CC2)C1)c1ccccn1 | – | – | – | – | 1.64 | 3.87 | – | 0.141 µM | 0.226 µM | 0.135 µM | 1.84 | –
O=C(NCc1ccc(S(=O)(=O)c2cc(F)cc(F)c2)cc1)c1ccc2nccn2c1 | – | – | – | – | > 100 | 80.1 | – | 0.0508 µM | 20.5 µM | 0.296 µM | 12.1 | –
NC(=S)N/N=C/c1cc(-c2cccc(N)c2)ccn1 | – | – | – | – | > 100 | > 57.4 | – | 3.2 µM | 0.585 µM | 3.52 µM | > 100 | –
CO/N=C(/C)c1cccc(Nc2cc(-c3ccccc3)nc3ccc(OC)cc23)c1 | – | – | – | – | 6.12 | 64.3 | – | 1.99 µM | 27.6 µM | 22.4 µM | 46.6 | –
C=CCn1c2c(sc1=S)C(S)N=CN2 (stereo not given) | > 100 | > 100 | > 100 | 70.1 | – | – | – | – | – | – | – | –
Cc1cccc(N=C2NC(=O)C(CC(=O)Nc3cccc(C)c3C)S2)c1 (stereo not given) | > 100 | > 100 | – | – | – | – | – | – | – | – | – | –
CN(C)CCSc1nccc(-c2cc3ccccc3s2)n1 | > 100 | 30.9 | 34.1 | – | – | – | – | – | – | – | – | –
Cc1nn(C(=O)c2ccc(Cl)cc2)c2c1C(c1ccc(O)cc1)SC(N)=N2 (stereo not given) | – | – | – | – | > 10 | > 10 | > 10 | – | – | – | > 10 | –
O=[N+]([O-])c1ccc(CSCc2ccc(Cl)cc2)cc1 | – | – | – | – | > 100 | > 100 | > 100 | – | – | – | > 100 | –
O=C1C(Cl)=C(Nc2ccccc2O)C(=O)N1Cc1ccccc1 | – | – | – | – | 37.4 | 38.1 | – | 19.7 µM | 17.3 µM | – | – | –
